Experimental data from patent US4895589A, “Heterocyclic compounds” (Imperial Chemical Industries PLC, priority 1985, dated 1990).

Key:
[1] = tested on: Rice; assay: Intermediate Retardant Test, rice; assay type: in vivo, Rice (Ishikari); settings: Oryza sativa, 672 h, ~28 days, Table VII, read-out: Percentage Reduction in Height of Rice (Compared to formulation blank)
Summary of the method: (§1)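 Percentage height reduction relative to the formulation blank, assessed about 28 days post-treatment as height to top-most ligule (rice, spring barley) or to apex (apples). Compounds sprayed overall at 1000 and 4000 ppm (1 and 4 kg ha^-1 in 1000 l/ha), covering root and foliar uptake; rice grown immersed in paddy pots.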

[2] = tested on: Spring Barley; assay: Intermediate Retardant Test, spring barley; assay type: in vivo, Spring Barley (Atem/kym); settings: Hordeum vulgare, 672 h, ~28 days, Table VIII, read-out: Percentage Reduction in Height of Spring Barley (Compared to formulation blank)
Summary of the method: as §1

[3] = tested on: Apples; assay: Intermediate Retardant Test, apples; assay type: in vivo, Apples (Red Delicious); settings: 672 h, ~28 days, Table IX, read-out: Percentage Reduction in Height of Apples (Compared to formulation blank)
Summary of the method: as §1

[4] = tested on: Wheat; settings: WW, 4000 ppm, 2-3 weeks
Experimental: (§2) The compounds were tested for plant growth regulator activity against up to tweleve plant species for various growth effects relevant to plant growth regulation.
(§3) Each chemical was applied at 4000 ppm (4 kg/ha in a 1000 l/ha field volume) using a tracksprayer and a SS8004E (Teejet) nozzle.
(§4) After spray, the plants were grown in a glasshouse with 25° C. day/22° C. night temperatures and supplementary lighting was supplied when necessary (from mercury vapour lamps), to provide a 16 hour photoperiod. The exception to this were the temperate cereals, wheat and barley, which were grown in 16° C. day 13° C. night temperatures
(§5) After 2-3 weeks in the glasshouse, depending on the time of year, the plants were visually assessed for morphological characteristics. Formulations blanks were used as controls to assess the Plants.

[5] = tested on: Maize; settings: MZ, 4000 ppm, 2-3 weeks
Experimental: as §2, §3, §4, §5

[6] = tested on: Cynosurus cristatus; settings: CC, 4000 ppm, 2-3 weeks
Experimental: as §2, §3, §4, §5

[7] = tested on: Soya; settings: SY, 4000 ppm, 2-3 weeks
Experimental: as §2, §3, §4, §5

[8] = tested on: Sugar beet; settings: SB, 4000 ppm, 2-3 weeks
Experimental: as §2, §3, §4, §5

[9] = tested on: Tomato; settings: TO, 4000 ppm, 2-3 weeks
[10] = tested on: Lettuce; settings: LT, 4000 ppm, 2-3 weeks
[11] = tested on: plant species of Whole Plant Screen (1) or (2); assay: Across screen comparison: total retardation relative to paclobutrazol (Whole Plant Screens (1) and (2)); assay type: in vivo; settings: compounds of Table I, Table X
Summary of the method: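 Compounds, each tested in Whole Plant Screen (1) or (2), are compared by summing retardation scores over all species tested. Each total is expressed as a percentage of the total retardation from paclobutrazol, the standard run in every test.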

[12] = tested on: Barley; settings: BR, 4000 ppm, 2-3 weeks
Experimental: as §2, §3, §4, §5

[13] = tested on: Agrostis tenius; settings: AT, 4000 ppm, 2-3 weeks
[14] = tested on: Dacrylis glomerata; settings: DA, 4000 ppm, 2-3 weeks
Experimental: as §2, §3, §4, §5

[15] = tested on: Vines; settings: VN, 4000 ppm, 2-3 weeks
Experimental: as §2, §3, §4, §5

[16] = tested on: Radish; settings: RA, 4000 ppm, 2-3 weeks
Experimental: as §2, §3, §4, §5

Compound | Percent reduction in rice plant height vs formulation blank at 1000 ppm [1] | Percent reduction in rice plant height vs formulation blank at 4000 ppm [1] | height reduction vs blank at 1000 ppm [2] | height reduction vs blank at 4000 ppm [2] | percent reduction in plant height vs formulation blank at 4000 ppm [3] | Retardation score (1-3) with greening (G), apical damage (A), tillering/side shooting (T) [4] | Retardation score (1-3) with greening (G), apical damage (A), tillering/side shooting (T) [5] | Retardation score (1-3) with greening (G), apical damage (A), tillering/side shooting (T) [6] | Retardation score (1-3) with greening (G), apical damage (A), tillering/side shooting (T) [7] | Retardation score (1-3) with greening (G), apical damage (A), tillering/side shooting (T) [8] | Retardation score (1-3) with greening (G), apical damage (A), tillering/side shooting (T) [9] | Retardation score (1-3) with greening (G), apical damage (A), tillering/side shooting (T) [10] | percent reduction in plant height vs formulation blank at 1000 ppm [3] | Total Retardation expressed as a percentage of the total retardation caused by paclobutrazol [11] | Retardation score (1-3) with greening (G), apical damage (A), tillering/side shooting (T) [12] | Retardation score (1-3) with greening (G), apical damage (A), tillering/side shooting (T) [13] | Retardation score (1-3) with greening (G), apical damage (A), tillering/side shooting (T) [14] | Retardation score (1-3) with greening (G), apical damage (A), tillering/side shooting (T) [15] | Retardation score (1-3) with greening (G), apical damage (A), tillering/side shooting (T) [16]
CCCCC#CC(Cn1cncn1)(OC)C(C)(C)C (stereo not drawn) [Compound 2] | 17.4% | 34.6% | 0.2% | 25.6% | 12.3% | 2G | 2GA | 1G | 3GT | 1G | 1G | 1 (10-30% retardation) | – | – | – | – | – | – | –
CCCCCC#CC(O)(Cn1cncn1)C(C)(C)C (stereo not drawn) [Compound 3, 2,2-dimethyl-3-hydroxy-3-(hept-1-yne-1-yl)-4-(1,2,4-triazol-1-yl)-butane] | 21.2% | 40.8% | 18.5% | 34.7% | 25.9% | 2GT | 1G | 2G | 3GA | 1G | 2G | – | 9.5% | 65.6 % of paclobutrazol | 1T | 2G | 2G | 2GAT | 3 (61-100% retardation)
CC(C)CCC#CC(O)(Cn1cncn1)C(C)(C)C (stereo not drawn) [Compound 8, 2,2-dimethyl-3-hydroxy-3-(5-methyl-hex-1-yne-1-yl)-4-(1,2,4-triazol-1-yl)-butane] | 26.6% | 47.7% | 39.6% | 65.8% | 26% | 3GT | 1G | 2G | 3G | – | 2G | 1G | 7.5% | 60.0 % of paclobutrazol | 1T | 1G | 1G | 1 (10-30% retardation) | 3G
